Test results: article PMC12376128, “In vitro and In Vivo Drug Metabolism Analysis of BPI-460372 - A Covalent TEAD1/3/4 Inhibitor” (Current Drug Metabolism, 2025)

Tests used:
CYP2C8 = experiment: Metabolic stability in HLMs with or without specific CYP inhibitor (quercetin); format: in vitro ADME, human; conditions: HLMs 1 mg protein/mL, substrate 1 μM, quercetin 20 µM
Method: (§1) Before starting the experiments, the HLMs were thawed gently on ice. Metabolic stability incubations were performed at 37 °C. The incubations contained 100 mM phosphate buffer saline (PBS, pH 7.4), HLMs (1 mg protein·mL^-1), dimethyl sulfoxide (DMSO, blank control) or a selective CYP inhibitor, and BPI-460372 or positive control substrates (final incubation concentration, 1 μM). The incubation process started with the addition of NADPH (1 mM final concentration) after a 5-minute preincubation period. The chemical inhibitors were as follows: a-naphthoflavone (2 µM) for CYP1A2, ticlopidine (20 µM) for 2B6, quercetin (20 µM) for CYP2C8, sulfaphenazole (20 µM) for CYP2C9, ticlopidine (200 µM) for CYP2C19, quinidine (20 µM) for CYP2D6, and ketoconazole (20 µM) for CYP3A [9]. Aliquots were maintained in acetonitrile containing internal standard (IS) at various time points, such as 0 min, 5 min, 10 min, 20 min, 30 min, and 60 min. All incubations were performed in triplicate, and the concentration in the supernatant was determined by liquid chromatography-tandem mass spectrometry (LC-MS/MS).
(§2) The elimination rate constant k (min^-1) was obtained by linear regression from the natural logarithm of the […] of the parent drug and the incubation time. The inhibition rate was calculated using equation 1 [10]: […]

CYP2C19 = experiment: Metabolic stability in HLMs with or without specific CYP inhibitor (ticlopidine 200 µM); format: in vitro ADME, human; conditions: HLMs 1 mg protein/mL, substrate 1 μM
Method: as §1, with “The incubations contained 100 mM phosphate buffer saline (PBS, pH 7.4), HLMs (1 mg protein·mL^-1), dimethyl sulfoxide (DMSO, blank control) or a selective CYP inhibitor, and BPI-460372 or positive control substrates (final incubation concentration, 1 μM).” left out
as §2

monkey hepatocytes = experiment: Metabolism and metabolite formation in hepatocytes; format: in vitro ADME, cynomolgus monkey; conditions: cynomolgus monkey hepatocytes, 10 µM BPI-460372, 4 h incubation
Source text: (§3) All the samples were duplicates.

dog hepatocytes = experiment: Metabolism and metabolite formation in hepatocytes; format: in vitro ADME, beagle dog; conditions: beagle dog hepatocytes, 10 µM BPI-460372, 4 h incubation
Source text: as §3

rat hepatocytes = experiment: Metabolism and metabolite formation in hepatocytes; format: in vitro ADME, SD rat; conditions: SD rat hepatocytes, 10 µM BPI-460372, 4 h incubation
Source text: as §3

mouse hepatocytes = experiment: Metabolism and metabolite formation in hepatocytes; format: in vitro ADME, ICR mouse; conditions: ICR mouse hepatocytes, 10 µM BPI-460372, 4 h incubation
Source text: as §3

Stability in plasma [1] = format: in vitro ADME; conditions: rat plasma, 37°C, 4 h
Stability in plasma [2] = format: in vitro ADME; conditions: dog plasma, 37°C, 4 h
Stability in plasma [3] = format: in vitro ADME; conditions: monkey plasma, 37°C, 4 h
In vivo clearance [4] = conditions: rats
In vivo clearance [5] = conditions: monkeys
TEAD proteins = system: TEAD proteins; parameters: method as in doi:10.1158/1538-7445.AM2023-501; conditions: cited from earlier work
TEAD palmitoylation = system: TEAD palmitoylation; parameters: method as in doi:10.1158/1538-7445.AM2023-501; conditions: cited from earlier work
[6] = parameters: method as in doi:10.1158/1538-7445.AM2024-7575; conditions: cited from earlier work
CYP2C9 = CYP2C9 (Homo sapiens, UniProt P11712); experiment: Metabolic stability in recombinant human CYP isoenzymes; format: in vitro ADME; parameters: purchased Cypex Ltd. (Dundee, UK); conditions: rCYP2C9 100 pmol P450/mL, 1 µM
CYP2C9, sequence (P11712 whole entry, canonical isoform): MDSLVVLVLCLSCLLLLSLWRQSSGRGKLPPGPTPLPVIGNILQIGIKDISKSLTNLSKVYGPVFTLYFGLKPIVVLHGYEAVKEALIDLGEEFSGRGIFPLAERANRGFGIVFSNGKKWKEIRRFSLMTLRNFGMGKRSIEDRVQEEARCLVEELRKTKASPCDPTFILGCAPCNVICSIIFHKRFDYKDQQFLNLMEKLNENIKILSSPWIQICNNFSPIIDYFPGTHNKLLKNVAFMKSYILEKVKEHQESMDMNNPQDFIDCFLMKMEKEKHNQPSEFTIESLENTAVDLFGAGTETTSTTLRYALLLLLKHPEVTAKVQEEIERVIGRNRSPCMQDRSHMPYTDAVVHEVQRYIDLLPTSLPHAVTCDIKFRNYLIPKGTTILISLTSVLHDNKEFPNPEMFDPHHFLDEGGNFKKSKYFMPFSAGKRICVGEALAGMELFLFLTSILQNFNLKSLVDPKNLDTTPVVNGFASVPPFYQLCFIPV
Method: To identify the specific isoform that participates in the metabolism of BPI-460372, 1 µM BPI-460372 or positive control substrates were mixed with recombinant human CYP1A2, 2B6, 2C8, 2C9, 2C19, 2D6 or 3A4 (100 pmol P450·mL^-1), and the reaction was started by the addition of NADPH (1 mM final concentration) after 5-minute preincubation at 37°C. Aliquots were maintained in acetonitrile containing IS at different time points at 0 min, 5 min, 10 min, 20 min, 30 min, and 60 min. All incubations were performed in triplicate, and the concentration of the supernatant was determined by LC-MS/MS.
A substrate depletion approach was employed to determine the intrinsic clearance (CLint (rCYPj)) for each isoform. The contribution of each isoform was estimated using equations 2 and 3. CYPj abundance was evaluated as the abundance (CYPj) of each isoform in HLMs (pmol/mg protein).

[7] = system: cysteine S-conjugate β-lyase; experiment: Effect of cysteine S-conjugate β-lyase inhibitor AOAA on the metabolism of BPI-460372 (rat urine); conditions: 20 mg/kg BPI-460372 + 100 mg/kg AOAA, once daily 21 days, urine 0-48 h on day 21

Q: For `C=C(F)C(=O)N1CC(n2c(=O)n(-c3ccc(C(F)(F)F)cc3)c3nccnc32)C1` [BPI-460372], which “Inhibition Rate” value (CYP2C8) is on record?
A: 53.9%

Q: What about the “Inhibition Rate” value (CYP2C19) of the same compound?
A: -4.2%

Q: And the “UV (314 nm) Peak Areas Relative Abundance” value (monkey hepatocytes)?
A: 63.98%

Q: What about the “UV (314 nm) Peak Areas Relative Abundance” value (dog hepatocytes) of the same compound?
A: 48.28%

Q: And the “UV (314 nm) Peak Areas Relative Abundance” value (rat hepatocytes)?
A: 70.87%

Q: And the “UV (314 nm) Peak Areas Relative Abundance” value (mouse hepatocytes)?
A: 32.74%

Q: What about the Stability in plasma (Stability in plasma [1]) of the same compound?
A: stable

Q: And the Stability in plasma (Stability in plasma [2])?
A: stable

Q: What about the Stability in plasma (Stability in plasma [3]) of the same compound?
A: stable

Q: And the Clearance in vivo (In vivo clearance [4])?
A: low clearance

Q: What about the Clearance in vivo (In vivo clearance [5]) of the same compound?
A: low clearance

Q: And the “Covalent binding to TEAD1/3/4” value (TEAD proteins; 2-fluoro acrylamide warhead)?
A: covalently bind to the Cys-368 residue

Q: What about the Off-target covalent binding (TEAD proteins) of the same compound?
A: without significant off-target covalent binding affinity

Q: And the “Inhibition of the palmitoylation of TEADs” value (TEAD palmitoylation)?
A: inhibit the palmitoylation

Q: And the Preliminary efficacy ([6]; patients with malignant mesothelioma, lung adenocarcinoma, and lung squamous cell carcinoma)?
A: preliminary efficacy was observed

Q: What about the Safety profile ([6]; solid tumor patients) of the same compound?
A: good safety profile

Q: What about the Contribution (CYP2C9) of the same compound?
A: 6.3%

Q: And the “Area ratio in rat urine, mean (%CV)” value [7]?
A: 1.48 (69)
